In paper PMC10504751, “Chalcone/1,3,4-Oxadiazole/Benzimidazole hybrids as novel anti-proliferative agents inducing apoptosis and inhibiting EGFR & BRAFV^600E” (BMC Chemistry, 2023):

Tests used:
Test in all cases: NCI one-dose SRB anti-proliferative screen
Type in all cases: cell-based
NCI-H322M = details: Homo sapiens; NCI-H322M, Non-Small Cell Lung Cancer; NCI one dose; read-out: Cell growth inhibition %
Outline: (§1)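 The selected hybrids underwent one-dose evaluation at 10 µM. Cellular growth was estimated by colorimetric detection of bound sulforhodamine B. Lines came from a sixty-member panel representing nine tumour types.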

HCT-15 = details: Homo sapiens; HCT-15, Colon cancer; NCI one dose; read-out: Cell growth inhibition %
Outline: as §1

SNB-19 = details: Homo sapiens; SNB-19, CNS Cancer; NCI one dose; read-out: Cell growth inhibition %
Outline: as §1

HOP-92 = details: Homo sapiens; HOP-92, Non-Small Cell Lung Cancer; NCI one dose; read-out: Cell growth inhibition %
Outline: as §1

A549/ATCC = details: Homo sapiens; A549/ATCC, Non-Small Cell Lung Cancer; NCI one dose; read-out: Cell growth inhibition %
Outline: as §1

TK-10 = details: Homo sapiens; TK-10, Renal cancer; NCI one dose; read-out: Cell growth inhibition %
Outline: as §1

KM12 = details: Homo sapiens; KM12, Colon cancer; NCI one dose; read-out: Cell growth inhibition %
Outline: as §1

IGROV1 = details: Homo sapiens, IGROV-1; IGROV1, Ovarian Cancer; NCI one dose; read-out: Cell growth inhibition %
Outline: as §1

UACC-257 = details: Homo sapiens; UACC-257, Melanoma; NCI one dose; read-out: Cell growth inhibition %
Outline: as §1

HT29 = details: Homo sapiens, HT-29; HT29, Colon cancer; NCI one dose; read-out: Cell growth inhibition %
Outline: as §1

LOX IMVI = details: Homo sapiens; for inhibition at 10 µM: Melanoma, NCI one dose, read-out: Cell growth inhibition %
Outline: as §1

SF-295 = details: Homo sapiens; SF-295, CNS Cancer; NCI one dose; read-out: Cell growth inhibition %
Outline: as §1

HCC-2998 = details: Homo sapiens; HCC-2998, Colon cancer; NCI one dose; read-out: Cell growth inhibition %
Outline: as §1

OVCAR-8 = details: Homo sapiens; OVCAR-8, Ovarian Cancer; NCI one dose; read-out: Cell growth inhibition %
Outline: as §1

MCF7 = details: Homo sapiens; MCF7, Breast cancer; NCI one dose; read-out: Cell growth inhibition %
Outline: as §1

SK-MEL-5 = details: Homo sapiens; SK-MEL-5, Melanoma; NCI one dose; read-out: Cell growth inhibition %
Outline: as §1

SF-539 = details: Homo sapiens; SF-539, CNS Cancer; NCI one dose; read-out: Cell growth inhibition %
Outline: as §1

MDA-MB-231/ATCC = details: Homo sapiens; MDA-MB-231/ATCC, Breast cancer; NCI one dose; read-out: Cell growth inhibition %
Outline: as §1

NCI-H23 = details: Homo sapiens; NCI-H23, Non-Small Cell Lung Cancer; NCI one dose; read-out: Cell growth inhibition %
Outline: as §1

MALME-3M = details: Homo sapiens; MALME-3M, Melanoma; NCI one dose; read-out: Cell growth inhibition %
Outline: as §1

SK-MEL-28 = details: Homo sapiens; SK-MEL-28, Melanoma; NCI one dose; read-out: Cell growth inhibition %
Outline: as §1

SK-OV-3 = details: Homo sapiens; SK-OV-3, Ovarian Cancer; NCI one dose; read-out: Cell growth inhibition %
Outline: as §1

COLO 205 = details: Homo sapiens; COLO 205, Colon cancer; NCI one dose; read-out: Cell growth inhibition %
Outline: as §1

SW-620 = details: Homo sapiens; SW-620, Colon cancer; NCI one dose; read-out: Cell growth inhibition %
Outline: as §1

PC-3 = details: Homo sapiens; PC-3, Prostate Cancer; NCI one dose; read-out: Cell growth inhibition %
Outline: as §1

OVCAR-5 = details: Homo sapiens; OVCAR-5, Ovarian Cancer; NCI one dose; read-out: Cell growth inhibition %
Outline: as §1

OVCAR-4 = details: Homo sapiens; OVCAR-4, Ovarian Cancer; NCI one dose; read-out: Cell growth inhibition %
Outline: as §1

NCI-H460 = details: Homo sapiens; NCI-H460, Non-Small Cell Lung Cancer; NCI one dose; read-out: Cell growth inhibition %
Outline: as §1

HL-60(TB) = details: Homo sapiens; HL-60(TB), Leukemia; NCI one dose; read-out: Cell growth inhibition %
Outline: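 Activity reflects a single-point exposure at 10 µM, with cell mass determined by a sulforhodamine B dye assay.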

DU-145 = details: Homo sapiens; DU-145, Prostate Cancer; NCI one dose; read-out: Cell growth inhibition %
Outline: as §1

| SMILES | inhibition at 10 µM (NCI-H322M) | inhibition at 10 µM (HCT-15) | inhibition at 10 µM (SNB-19) | inhibition at 10 µM (HOP-92) | inhibition at 10 µM (A549/ATCC) | inhibition at 10 µM (TK-10) | inhibition at 10 µM (KM12) | inhibition at 10 µM (IGROV1) | inhibition at 10 µM (UACC-257) | inhibition at 10 µM (HT29) | inhibition at 10 µM (LOX IMVI) | inhibition at 10 µM (SF-295) | inhibition at 10 µM (HCC-2998) | inhibition at 10 µM (OVCAR-8) | inhibition at 10 µM (MCF7) | inhibition at 10 µM (SK-MEL-5) | inhibition at 10 µM (SF-539) | inhibition at 10 µM (MDA-MB-231/ATCC) | inhibition at 10 µM (NCI-H23) | inhibition at 10 µM (MALME-3M) | also measured |
| --- | --- | --- | --- | --- | --- | --- | --- | --- | --- | --- | --- | --- | --- | --- | --- | --- | --- | --- | --- | --- | --- |
| O=C(CSc1nnc(-c2ccc3[nH]c(-c4ccccc4)nc3c2)o1)Nc1ccc(C(=O)/C=C/c2ccccc2)cc1 [Compound 7a, 2-{5-[2-Phenyl-1 H-benzo[d]imidazol-5-yl]-1,3,4-oxadiazol-2-ylthio}-N-{4-[(E)-3-phenylacryloyl]phenyl}acetamide] | 0% | 0% | 0.06% | 0% | 0% | 0% | 0% | 4.17% | 0% | 0% | 2.69% | 0% | 0% | 0.04% | 12.4% | 1.68% | 3.15% | 0% | 0% | 5.5% | inhibition at 10 µM (SK-MEL-28): 0%; inhibition at 10 µM (SK-OV-3): 0%; inhibition at 10 µM (COLO 205): 0%; inhibition at 10 µM (SW-620): 0%; inhibition at 10 µM (PC-3): 0%; inhibition at 10 µM (OVCAR-5): 0%; inhibition at 10 µM (OVCAR-4): 0%; inhibition at 10 µM (NCI-H460): 0%; inhibition at 10 µM (HL-60(TB)): 0%; inhibition at 10 µM (DU-145): 0% |
| O=C(CSc1nnc(-c2ccc3[nH]c(-c4ccccc4)nc3c2)o1)Nc1ccc(C(=O)/C=C/c2ccc(Cl)cc2)cc1 [Compound 7b, 2-{5-[2-Phenyl-1 H-benzo[d]imidazol-5-yl]-1,3,4-oxadiazol-2-ylthio}-N-{4-[(E)-3-(4-chlorophenyl)acryloyl]phenyl}acetamide] | 0% | 0% | 3.92% | 0% | 0% | 0% | 0% | 15.3% | 0% | 0% | 12.9% | 0% | 0% | 2.36% | 16.8% | 3.35% | 4.06% | 4.03% | 0% | 0% | inhibition at 10 µM (SK-MEL-28): 0%; inhibition at 10 µM (SK-OV-3): 0%; inhibition at 10 µM (COLO 205): 0%; inhibition at 10 µM (SW-620): 0%; inhibition at 10 µM (PC-3): 0.53%; inhibition at 10 µM (OVCAR-5): 0%; inhibition at 10 µM (OVCAR-4): 0%; inhibition at 10 µM (NCI-H460): 0%; inhibition at 10 µM (HL-60(TB)): 0%; inhibition at 10 µM (DU-145): 0% |
| COc1ccc(/C=C/C(=O)c2ccc(NC(=O)CSc3nnc(-c4ccc5[nH]c(-c6ccccc6)nc5c4)o3)cc2)cc1 [Compound 7c, 2-{5-[2-Phenyl-1 H-benzo[d]imidazol-5-yl]-1,3,4-oxadiazol-2-ylthio}-N-{4-[(E)-3-(4-methoxyphenyl)acryloyl]phenyl}acetamide] | 0% | 3.81% | 7.28% | 0% | 0% | 0% | 1.55% | 0% | 0% | 1.01% | 6.46% | 1.65% | 0% | 9.58% | 27.5% | 16.8% | 8.76% | 0% | 7.79% | 8.64% | inhibition at 10 µM (SK-MEL-28): 0%; inhibition at 10 µM (SK-OV-3): 0%; inhibition at 10 µM (COLO 205): 0%; inhibition at 10 µM (SW-620): 0%; inhibition at 10 µM (PC-3): 5.12%; inhibition at 10 µM (OVCAR-5): 0%; inhibition at 10 µM (OVCAR-4): 0%; inhibition at 10 µM (NCI-H460): 0%; inhibition at 10 µM (HL-60(TB)): 5.24%; inhibition at 10 µM (DU-145): 0% |
| COc1ccc(/C=C/C(=O)c2ccc(NC(=O)CSc3nnc(-c4ccc5[nH]c(-c6ccccc6)nc5c4)o3)cc2)cc1OC [Compound 7d, 2-{5-[2-Phenyl-1 H-benzo[d]imidazol-5-yl]-1,3,4-oxadiazol-2-ylthio}-N-{4-[(E)-3-(3,4-dimethoxyphenyl)acryloyl]phenyl}acetamide] | 0% | 0% | 3.18% | 0% | 0% | 0% | 0% | 0% | 0% | 0% | 13.5% | 0% | 0% | 0% | 27.3% | 0% | 0.34% | 0% | 0% | 2.37% | inhibition at 10 µM (SK-MEL-28): 0%; inhibition at 10 µM (SK-OV-3): 0%; inhibition at 10 µM (COLO 205): 0%; inhibition at 10 µM (SW-620): 0%; inhibition at 10 µM (PC-3): 0%; inhibition at 10 µM (OVCAR-5): 0%; inhibition at 10 µM (OVCAR-4): 0%; inhibition at 10 µM (NCI-H460): 0%; inhibition at 10 µM (HL-60(TB)): 0%; inhibition at 10 µM (DU-145): 0% |
| COc1cc(/C=C/C(=O)c2ccc(NC(=O)CSc3nnc(-c4ccc5[nH]c(-c6ccccc6)nc5c4)o3)cc2)cc(OC)c1OC [Compound 7e, 2-{5-[2-Phenyl-1 H-benzo[d]imidazol-5-yl]-1,3,4-oxadiazol-2-ylthio}-N-{4-[(E)-3-(3,4,5-trimethoxyphenyl)acryloyl]phenyl}acetamide] | 3.06% | 12.4% | 15.6% | 0% | 0% | 0% | 10% | 2.76% | 12.4% | 0% | 44% | 0% | 0% | 2.93% | 56.1% | 7.81% | 17.5% | 6.4% | 7.28% | 0% | activity at 10 µM (LOX IMVI; LOX IMVI (Melanoma), 10 µM one dose, read-out: Growth Percent): 56%; inhibition at 10 µM (SK-MEL-28): 6.64%; inhibition at 10 µM (SK-OV-3): 0%; inhibition at 10 µM (COLO 205): 0%; inhibition at 10 µM (SW-620): 1.21%; inhibition at 10 µM (PC-3): 1.05%; inhibition at 10 µM (OVCAR-5): 0%; inhibition at 10 µM (OVCAR-4): 0.46%; inhibition at 10 µM (NCI-H460): 7.53%; inhibition at 10 µM (HL-60(TB)): 31%; inhibition at 10 µM (DU-145): 9.02% |
